US20230220063A1, “IL-1BETA BINDING ANTIBODIES FOR USE IN TREATING CANCER” (NOVARTIS AG, priority 2017, published 2023)

How the values were obtained:
[1] = tested on: vasculature in trabecular bone; assay: Blocking IL-1β signalling: blood vessels in the bone microenvironment of mice; format: in vivo
Experimental: Vasculature was visualised following CD34 and endomucin immunohistochemistry and the concentration of vascular endothelial growth factor (VEGF) and endothelin-1 in serum and/or bone marrow was determined by ELISA. Effects on bone volume were measured by Micro computed tomography (uCT).
(§1) Tumor cells, serum, and bone were subsequently resected for downstream analysis.

[2] = tested on: MDA-MB-231 Luc2-TdTomato cells; assay: Spontaneous human breast cancer metastasis to human bone implants in NOD SCID mice; format: in vivo
Experimental: To model human breast cancer metastasis to human bone implants two human bone discs were implanted subcutaneously into 10-week old female NOD SCID mice (n=10/group) under isofluorane anaesthetic. Mice received an injection of 0.003 mg vetergesic and Septrin was added to the drinking water for 1 week following bone implantation. Mice were left for 4 weeks before injecting 1×10^5 MDA-MB-231 Luc2-TdTomato, MCF7 Luc2 or T47D Luc2 cells in 20% Martigel/79% PBS/1% […] into the two hind mammary fat pads. Primary tumor growth and development of metastases was monitored weekly using an IVIS […] system (Caliper Life Sciences) following sub-cutaneous injection of 30 mg/ml D-luciferin (Invitrogen). On termination of experiments mammary tumors, circulating tumor cells, serum and bone metastases were resected. RNA was processed for downstream analysis by real time PCR, and cell lysates were taken for protein analysis and whole tissue for histology as previously described (Nutter et al., 2014; Ottewell et al., 2014a).
as §1
Whole blood was centrifuged at 10,000 g for 5 minutes and the serum removed for ELISA assays. The cell pellet was re-suspended in 5 ml of FSM lysis solution (Sigma-Aldrich, Pool, UK) to lyse red blood cells. Remaining cells were re-pelleted, washed 3x in PBS and re-suspended in a solution of PBS/10% FCS. Samples from 10 mice per group were pooled prior to isolation of TdTomato positive tumor cells using a MoFlow High performance cell sorter (Beckman Coulter, Cambridge UK) with the […] laser line from a Coherent I-90C tenable argon ion (Coherent, Santa Clara, CA). TdTomato fluorescence was detected by a 555LP dichroic long pass and a 580/30 nm band pass filter. Acquisition and analysis of cells was performed using Summit 4.3 software. Following sorting cells were immediately placed in RNA protect cell reagent (Ambion, Paisley, Renfrew, UK) and stored at -80° C. before RNA extraction.

mouse IL-1β = mouse IL-1β (Mus musculus, UniProt P10749); assay: Cross-reactivity with mouse IL-1β; format: binding
From the text: A mouse surrogate anti-IL-1β antibody has been developed and is being used to evaluate the effects of blocking IL-1β in mouse models of cancer. This isotype of the surrogate antibody is IgG2a, which is closely related to human IgG1.

[3] = murine model of spontaneous human breast cancer metastasis to human bone

Sequence of mouse IL-1β (P10749 118-269): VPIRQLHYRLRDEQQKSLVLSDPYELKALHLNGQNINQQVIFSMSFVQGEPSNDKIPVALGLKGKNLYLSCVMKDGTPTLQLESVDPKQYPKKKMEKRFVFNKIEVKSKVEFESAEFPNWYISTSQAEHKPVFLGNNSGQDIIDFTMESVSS

Substance: canakinumab: high-affinity, fully human monoclonal antibody of the IgG1/k to interleukin-1β; INN number 8836
- length of new blood vessels ([1]; 24 hours Ilaris, control 0.09 mm): 0.06 mm
- endothelin 1 and VEGF in the bone marrow (ELISA) ([1]; compared with control): reduced concentrations
- reduction in VEGF concentration ([1]; mice treated for 96 hours): 46%
- reduction in endothelin-1 concentration ([1]; mice treated for 96 hours): 47%
- average length of CD34^+ blood vessels in trabecular bone ([1]; p < 0.01 vs control): reduced the average length of CD34^+ blood vessels
- mice with metastasis detected in human bone implants ([2]; 1 mg/kg IL-1Ra daily or 10 mg/kg canakinumab s.c. every 14 days from day 7, control 7 out of 10): 1 out of 10
- bone metastasis, photons/sec mean values ([2]; Placebo 3.60E+06): 6.01E+04 photons/sec
- size of bone metastases ([2]; compared with control group): smaller than those detected in the control group
- bone turnover and neovascularisation ([2]; mouse, in vivo): reduced bone turnover and neovascularisation
- bone metastasis [2, 3]: significantly reduced bone metastasis
- primary tumour growth [2, 3]: increasing primary tumour growth
- tumor cells counted in whole blood ([2]; placebo 108 tumor cells/ml): 3 tumor cells/ml
- cross-reactivity with mouse IL-1β (mouse IL-1β): does not cross-react
